Laboratory results taken from ChEMBL document CHEMBL1147987, “Novel aminoethylbiphenyls as 5-HT7 receptor ligands” (Bioorg Med Chem Lett, 2007).

Experiments:
[1] = molecular target: T1, 5-hydroxytryptamine receptor 7 (Homo sapiens, UniProt P34969); test: Displacement of [3H]LSD from human 5HT7 in sf9 cells at 1 uM; format: cell-based
[2] = molecular target: T1, 5-hydroxytryptamine receptor 7; test: Displacement of [3H]LSD from human 5HT7 in sf9 cells at 0.01 uM; format: cell-based
[3] = molecular target: T2, 5-hydroxytryptamine receptor 1A (Rattus norvegicus) (UniProt P19327); test: Binding affinity to rat 5HT1A at 1 uM
T2 sequence (whole entry): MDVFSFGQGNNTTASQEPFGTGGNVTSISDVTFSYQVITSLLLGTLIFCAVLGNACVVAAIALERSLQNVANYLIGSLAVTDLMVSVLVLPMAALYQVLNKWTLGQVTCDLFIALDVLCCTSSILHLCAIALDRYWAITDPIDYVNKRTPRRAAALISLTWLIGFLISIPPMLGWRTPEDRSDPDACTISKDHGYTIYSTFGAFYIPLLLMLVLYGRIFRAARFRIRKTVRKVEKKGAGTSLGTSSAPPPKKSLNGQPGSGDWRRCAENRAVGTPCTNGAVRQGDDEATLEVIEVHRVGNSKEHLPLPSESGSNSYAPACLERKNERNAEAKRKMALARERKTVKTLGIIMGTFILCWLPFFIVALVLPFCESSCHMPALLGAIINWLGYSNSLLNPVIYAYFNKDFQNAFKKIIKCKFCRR

[4] = molecular target: T2, 5-hydroxytryptamine receptor 1A (Rattus norvegicus); test: Binding affinity to rat 5HT1A at 0.01 uM
[5] = molecular target: T1, 5-hydroxytryptamine receptor 7; test: Displacement of [3H]LSD from human 5HT7 in sf9 cells; format: cell-based
[6] = molecular target: T3, 5-hydroxytryptamine receptor 1A (Rattus norvegicus, UniProt P19327); test: Binding affinity to rat 5HT1A
T3 sequence (P19327 whole entry): T2 sequence (whole entry)

[7] = molecular target: 5-hydroxytryptamine receptor 7 (Rattus norvegicus) (UniProt P32305); test: Antagonist activity at 5HT7 receptor stimulated aldosterone secretion from rat adrenal cortex; format: functional, tissue-based
[8] = Selectivity ratio of rat 5HT1A to human 5HT7

T1 sequence (P34969 whole entry): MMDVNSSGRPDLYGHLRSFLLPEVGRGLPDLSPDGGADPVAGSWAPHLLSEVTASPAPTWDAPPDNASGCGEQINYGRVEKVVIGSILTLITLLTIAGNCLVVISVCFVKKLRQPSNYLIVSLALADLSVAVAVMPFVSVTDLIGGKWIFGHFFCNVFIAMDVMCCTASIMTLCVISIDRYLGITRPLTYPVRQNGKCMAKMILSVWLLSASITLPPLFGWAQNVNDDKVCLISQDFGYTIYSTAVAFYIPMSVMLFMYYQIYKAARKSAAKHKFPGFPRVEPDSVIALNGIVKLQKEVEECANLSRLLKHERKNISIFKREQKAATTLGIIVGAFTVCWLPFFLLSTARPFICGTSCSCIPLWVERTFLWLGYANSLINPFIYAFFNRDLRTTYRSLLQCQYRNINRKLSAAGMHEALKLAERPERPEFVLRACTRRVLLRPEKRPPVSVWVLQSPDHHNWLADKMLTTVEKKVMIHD
5-hydroxytryptamine receptor 7 (Rattus norvegicus), sequence (P32305 whole entry): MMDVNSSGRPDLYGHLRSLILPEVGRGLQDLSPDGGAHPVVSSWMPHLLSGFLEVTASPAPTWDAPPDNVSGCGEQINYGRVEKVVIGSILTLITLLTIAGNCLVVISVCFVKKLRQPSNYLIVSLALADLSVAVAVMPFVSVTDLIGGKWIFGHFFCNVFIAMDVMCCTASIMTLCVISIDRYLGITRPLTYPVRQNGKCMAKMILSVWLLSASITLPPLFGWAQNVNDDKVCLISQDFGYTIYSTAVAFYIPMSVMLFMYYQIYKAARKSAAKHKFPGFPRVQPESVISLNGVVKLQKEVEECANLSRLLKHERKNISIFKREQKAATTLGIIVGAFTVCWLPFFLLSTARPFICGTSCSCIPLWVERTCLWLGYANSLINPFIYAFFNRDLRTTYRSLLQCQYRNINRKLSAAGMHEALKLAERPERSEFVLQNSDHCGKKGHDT

SMILES: COc1cccc(OC)c1-c1cccc(CCN2CCOCC2)c1
- inhibition [1]: 9%
- inhibition [2]: 0%
- inhibition [3]: 14%
- inhibition [4]: 7%

SMILES: Cc1ccccc1-n1ccc(CCN(C)C)c1
- inhibition [1]: 87%
- inhibition [2]: 16%
- inhibition [3]: 41%
- inhibition [4]: 14%

SMILES: CN(C)CCc1cccc(-c2ccccc2)c1
- inhibition [1]: 70%
- inhibition [2]: 18%
- inhibition [3]: 18%
- inhibition [4]: 2%

SMILES: COc1ccc(-c2cccc(CCN(C)C)c2)cc1
- inhibition [1]: 52%
- inhibition [2]: 9%
- inhibition [3]: 37%
- inhibition [4]: 0%

SMILES: Cc1cccc(-n2ccc(CCN)c2)c1C
- inhibition [1]: 48%
- inhibition [2]: 25%
- inhibition [3]: 17%
- inhibition [4]: 0%

SMILES: COc1ccccc1-c1cccc(CCN(C)C)c1
- inhibition [1]: 69%
- inhibition [2]: 23%
- inhibition [3]: 48%
- inhibition [4]: 12%
- Ki [5]: 8.4 nM
- Ki [6]: 531 nM

SMILES: Cc1ccccc1-c1cccc(CCN(C)C)c1
- inhibition [1]: 81%
- inhibition [2]: 72%
- inhibition [3]: 85%
- inhibition [4]: 1%
- Ki [5]: 7.6 nM
- Ki [6]: 443 nM
- pKb [7]: 7.03

SMILES: Cc1ccccc1-c1cccc(CCN)c1
- inhibition [1]: 92%
- inhibition [2]: 71%
- inhibition [3]: 37%
- inhibition [4]: 0%
- Ki [5]: 7.5 nM
- Ki [6]: 1470 nM

SMILES: Cc1ccccc1-n1ccc(CCN)c1
- inhibition [1]: 62%
- inhibition [2]: 5%
- inhibition [3]: 16%
- inhibition [4]: 0%

SMILES: CN(C)CCc1cccc(-c2cccs2)c1
- inhibition [1]: 75%
- inhibition [2]: 12%
- inhibition [3]: 63%
- inhibition [4]: 6%

SMILES: CN(C)CCc1cccc(-c2ccsc2)c1
- inhibition [1]: 87%
- inhibition [2]: 12%
- inhibition [3]: 64%
- inhibition [4]: 20%

SMILES: Cc1cc(C)c(-n2ccc(CCN(C)C)c2)c(C)c1
- inhibition [1]: 56%
- inhibition [2]: 3%
- inhibition [3]: 20%
- inhibition [4]: 0%

SMILES: Cc1cccc(C)c1-c1cccc(CCN(C)C)c1
- inhibition [1]: 93%
- inhibition [2]: 73%
- inhibition [3]: 33%
- inhibition [4]: 6%
- Ratio Ki [8]: 60
- Ki [5]: 6.2 nM
- Ki [6]: 2250 nM

SMILES: Cc1cc(C)c(-n2ccc(CCN)c2)c(C)c1
- inhibition [1]: 0%
- inhibition [2]: 0%
- inhibition [3]: 0%
- inhibition [4]: 0%

SMILES: COc1ccc(-c2cccc(CCN(C)C)c2)cc1OC
- inhibition [1]: 38%
- inhibition [2]: 0%
- inhibition [3]: 52%
- inhibition [4]: 12%

SMILES: COc1cccc(OC)c1-c1cccc(CCN(C)C)c1
- inhibition [1]: 100%
- inhibition [2]: 50%
- inhibition [3]: 18%
- inhibition [4]: 3%
- Ratio Ki [8]: 60
- Ki [5]: 8.6 nM
- Ki [6]: 4830 nM
- Activity ([7]; filed as partial agonist): Partial agonist
